Measurements published in ChEMBL document CHEMBL3390836, “Mannich- and LedererManasse-based analogues of the natural product S-(+)-curcuphenol as cancer proliferation and migration inhibitors” (Medchemcomm, 2012).

How the values were obtained:
NCI-H460 = experiment: Cytotoxicity against human NCI-H460 cells assessed as cell growth at 10 uM after 48 hrs by SRB assay relative to control; type: functional; conditions: NCI-H460, 48 h, read-out: Activity
SF-295 [1] = experiment: Cytotoxicity against human SF295 cells assessed as cell growth at 10 uM after 48 hrs by SRB assay relative to control; type: functional; conditions: SF-295, 48 h, read-out: Activity
SW-620 = experiment: Cytotoxicity against human SW620 cells assessed as cell growth at 10 uM after 48 hrs by SRB assay relative to control; type: functional; conditions: SW-620, 48 h, read-out: Activity
MCF7 = experiment: Cytotoxicity against human MCF7 cells assessed as cell growth at 10 uM after 48 hrs by SRB assay relative to control; type: functional; conditions: MCF7, 48 h, read-out: Activity
MDA-MB-468 = experiment: Cytotoxicity against human MDA-MB-468 cells assessed as cell growth at 10 uM after 48 hrs by SRB assay relative to control; type: functional; conditions: MDA-MB-468, 48 h, read-out: Activity
HOP-92 = experiment: Cytotoxicity against human HOP92 cells assessed as cell growth at 10 uM after 48 hrs by SRB assay relative to control; type: functional; conditions: HOP-92, 48 h, read-out: Activity
M14 = experiment: Cytotoxicity against human M14 cells assessed as cell growth at 10 uM after 48 hrs by SRB assay relative to control; type: functional; conditions: M14, 48 h, read-out: Activity
Malme-3M = experiment: Cytotoxicity against human MALME-3M cells assessed as cell growth at 10 uM after 48 hrs by SRB assay relative to control; type: functional; conditions: read-out: Activity
SK-MEL-28 = experiment: Cytotoxicity against human SK-MEL-28 cells assessed as cell growth at 10 uM after 48 hrs by SRB assay relative to control; type: functional; conditions: SK-MEL-28, 48 h, read-out: Activity
BT-549 = experiment: Cytotoxicity against human BT549 cells assessed as cell growth at 10 uM after 48 hrs by SRB assay relative to control; type: functional; conditions: BT-549, 48 h, read-out: Activity
NCI-H226 = experiment: Cytotoxicity against human NCI-H226 cells assessed as cell growth at 10 uM after 48 hrs by SRB assay relative to control; type: functional; conditions: NCI-H226, 48 h, read-out: Activity
MDA-MB-435 = experiment: Cytotoxicity against human MDA-MB-435 cells assessed as cell growth at 10 uM after 48 hrs by SRB assay relative to control; type: functional; conditions: MDA-MB-435, 48 h, read-out: Activity
SF-268 = experiment: Cytotoxicity against human SF268 cells assessed as cell growth at 10 uM after 48 hrs by SRB assay relative to control; type: functional; conditions: SF-268, 48 h, read-out: Activity
MDA-MB-231 [2] = experiment: Antimigratory activity against human MDA-MB-231 cells after 24 hrs by wound-healing assay; type: functional, cell-based; conditions: MDA-MB-231, 24 h
NCI-H23 = experiment: Cytotoxicity against human NCI-H23 cells assessed as cell growth at 10 uM after 48 hrs by SRB assay relative to control; type: functional; conditions: NCI-H23, 48 h, read-out: Activity
MOLT-4 [3] = experiment: Cytotoxicity against human MOLT4 cells assessed as cell growth at 10 uM after 48 hrs by SRB assay relative to control; type: functional; conditions: MOLT-4, 48 h, read-out: Activity
DU-145 [4] = experiment: Cytotoxicity against human DU145 cells assessed as cell growth at 10 uM after 48 hrs by SRB assay relative to control; type: functional; conditions: DU-145, 48 h, read-out: Activity
LOX IMVI = experiment: Cytotoxicity against human LOXIMVI cells assessed as cell growth at 10 uM after 48 hrs by SRB assay relative to control; type: functional; conditions: read-out: Activity
[5] = Cytotoxicity against human EKVX cells assessed as cell growth at 10 uM after 48 hrs by SRB assay relative to control; type: functional; conditions: read-out: Activity
SR = experiment: Cytotoxicity against human SR cells assessed as cell growth at 10 uM after 48 hrs by SRB assay relative to control; type: functional; conditions: read-out: Activity
MDA-MB-231 [6] = experiment: Cytotoxicity against human MDA-MB-231 cells assessed as cell growth at 10 uM after 48 hrs by SRB assay relative to control; type: functional; conditions: MDA-MB-231, 48 h, read-out: Activity
MDA-MB-231 [7] = experiment: Growth inhibition of human MDA-MB-231 cells after 72 hrs by MTT assay; type: functional, cell-based; conditions: MDA-MB-231, 72 h
[8] = Cytotoxicity against human UACC62 cells assessed as cell growth at 10 uM after 48 hrs by SRB assay relative to control; type: functional; conditions: UACC-62, 48 h, read-out: Activity
[9] = Cytotoxicity against human UO31 cells assessed as cell growth at 10 uM after 48 hrs by SRB assay relative to control; type: functional; conditions: UO-31, 48 h, read-out: Activity
NCI-H322M = experiment: Cytotoxicity against human NCI-H322M cells assessed as cell growth at 10 uM after 48 hrs by SRB assay relative to control; type: functional; conditions: read-out: Activity
[10] = Cytotoxicity against human OVCAR4 cells assessed as cell growth at 10 uM after 48 hrs by SRB assay relative to control; type: functional; conditions: OVCAR-4, 48 h, read-out: Activity
NCI-H522 = experiment: Cytotoxicity against human NCI-H522 cells assessed as cell growth at 10 uM after 48 hrs by SRB assay relative to control; type: functional; conditions: NCI-H522, 48 h, read-out: Activity
CAKI-1 = experiment: Cytotoxicity against human Caki1 cells assessed as cell growth at 10 uM after 48 hrs by SRB assay relative to control; type: functional; conditions: CAKI-1, 48 h, read-out: Activity
K562 = experiment: Cytotoxicity against human K562 cells assessed as cell growth at 10^-8 M after 48 hrs by SRB assay relative to control; type: functional; conditions: K562, 48 h, read-out: Activity
[11] = Cytotoxicity against human OVCAR8 cells after 48 hrs by SRB assay; type: functional; conditions: OVCAR-8, 48 h
MOLT-4 [12] = experiment: Cytotoxicity against human MOLT4 cells assessed as cell growth at 10^-8 M after 48 hrs by SRB assay relative to control; type: functional; conditions: MOLT-4, 48 h, read-out: Activity
SF-295 [13] = experiment: Cytotoxicity against human SF295 cells assessed as cell growth at 10^-4 M after 48 hrs by SRB assay relative to control; type: functional; conditions: SF-295, 48 h, read-out: Activity
HCC 2998 = experiment: Cytotoxicity against human HCC2998 cells assessed as cell growth at 10^-6 M after 48 hrs by SRB assay relative to control; type: functional; conditions: HCC 2998, 48 h, read-out: Activity
DU-145 [14] = experiment: Cytotoxicity against human DU145 cells assessed as cell growth at 10^-7 M after 48 hrs by SRB assay relative to control; type: functional; conditions: DU-145, 48 h, read-out: Activity
[15] = Cytotoxicity against human UO31 cells assessed as cell growth at 10^-7 M after 48 hrs by SRB assay relative to control; type: functional; conditions: UO-31, 48 h, read-out: Activity
SNB-19 = experiment: Cytotoxicity against human SNB19 cells assessed as cell growth at 10^-8 M after 48 hrs by SRB assay relative to control; type: functional; conditions: SNB-19, 48 h, read-out: Activity
HT-29 = experiment: Cytotoxicity against human HT-29 cells assessed as cell growth at 10^-8 M after 48 hrs by SRB assay relative to control; type: functional; conditions: HT-29, 48 h, read-out: Activity

| Compound | growth at 10 µM (NCI-H460) | growth at 10 µM (SF-295 [1]) | growth at 10 µM (SW-620) | growth at 10 µM (MCF7) | growth at 10 µM (MDA-MB-468) | growth at 10 µM (M14) | growth at 10 µM (Malme-3M) | growth at 10 µM (SK-MEL-28) | growth at 10 µM (NCI-H226) | growth at 10 µM (MDA-MB-435) | IC50 (MDA-MB-231 [2]) | growth at 10 µM (NCI-H23) | growth at 10 µM (MOLT-4 [3]) | growth at 10 µM (LOX IMVI) | growth at 10 µM [5] | growth at 10 µM (MDA-MB-231 [6]) | IC50 (MDA-MB-231 [7]) | growth at 10 µM [8] | growth at 10 µM [9] | growth at 10 µM (NCI-H322M) | other results |
| --- | --- | --- | --- | --- | --- | --- | --- | --- | --- | --- | --- | --- | --- | --- | --- | --- | --- | --- | --- | --- | --- |
| CC(C)=CCC[C@H](C)c1ccc(C)c2c1OCN(CCCCCO)C2 | 81.1% | 110% | 94.9% | 88.7% | 90% | 84.2% | 93.7% | 115% | 98.4% | 97.1% | 10 µM | 91.3% | 66.5% | 77.6% | 102% | 93.4% | 5.4 µM | 82.8% | 57% | 102% | growth at 10 µM (HOP-92): 27.7%; growth at 10 µM (BT-549): 72.1%; growth at 10 µM (SF-268): 97.5%; growth at 10 µM (DU-145 [4]): 109%; growth at 10 µM (SR): 66.6%; growth at 10 µM [10]: 95.5%; growth at 10 µM (NCI-H522): -1.75%; growth at 10 µM (CAKI-1): 78.1% |
| CC(C)=CCC[C@H](C)c1ccc(C)c(CO)c1O | 108% | 103% | 118% | 102% | 93.5% | 103% | 110% | 134% | 112% | 108% | 12.3 µM | 92.9% | 91.4% | 103% | 103% | 109% | 22.2 µM | 90.4% | 76.7% | 109% | growth at 10 µM (HOP-92): 65.2%; growth at 10 µM (BT-549): 91.8%; growth at 10 µM [10]: 90.7%; growth at 10 µM (NCI-H522): 87.1%; growth at 10 µM (CAKI-1): 112% |
| CC(C)=CCC[C@H](C)c1ccc(C)cc1O | 107% | 107% | 114% | 97.8% | 95.7% | 106% | 115% | 119% | 107% | 100% | 37.2 µM | 94.9% | 102% | 107% | 110% | 97.1% | > 50 µM | 100% | 83% | 113% | growth at 10 µM (HOP-92): 85%; growth at 10 µM (BT-549): 114%; growth at 10 µM [10]: 100%; growth at 10 µM (NCI-H522): 101%; growth at 10 µM (CAKI-1): 107% |
| CC(C)=CCC[C@H](C)c1ccc(C)c(CNCC2CCNCC2)c1O | 54.7% | 67% | 86% | 78.2% | 70% | 46.7% | 88% | 91% | 72% | 13.9% | > 20 µM | 84% | 77% | 37.1% | 67% | 69% | 18.3 µM | 13.2% | 64.3% | 80% | growth at 0.01 µM (K562): 103%; GI50 [11]: 4.35 µM; TGI [11]: 9.66 µM; CC50 ([11]; read-out: LC50 (the source's name)): 21.5 µM; growth at 0.01 µM (MOLT-4 [12]): 107%; growth at 10 µM (SF-268): 87.7%; growth at 100 µM (SF-295 [13]): -73%; growth at 10 µM (DU-145 [4]): 91.2%; growth at 1 µM (HCC 2998): 99%; growth at 10 µM (SR): 0.23%; growth at 0.1 µM (DU-145 [14]): 96%; growth at 0.1 µM [15]: 86%; growth at 0.01 µM (SNB-19): 92%; growth at 0.01 µM (HT-29): 108%; growth at 10 µM [10]: 88%; growth at 10 µM (NCI-H522): 86.8%; growth at 10 µM (CAKI-1): 71.8% |
